The record followed here is ChEMBL document CHEMBL4007424, “Design and Synthesis of Enantiomerically Pure Decahydroquinoxalines as Potent and Selective κ-Opioid Receptor Agonists with Anti-Inflammatory Activity in Vivo” (J Med Chem, 2017).

For one assay, the species on record is Rattus norvegicus. Briefly: Displacement of [3H]-DTG from sigma 2 receptor in rat liver membranes at 1 uM after 120 mins by scintillation counting. The class given is cell membranes. The settings on record: Membrane.
For assay [1], the target named is T1, Kappa-type opioid receptor (Homo sapiens, UniProt P41145). Put plainly: Agonist activity at recombinant human kappa-type opioid receptor expressed in HEK293 cells at 1 uM after 30 mins by [35S]GTPgammaS binding assay. The class given is functional, cell-based.
T1 sequence (P41145 whole entry): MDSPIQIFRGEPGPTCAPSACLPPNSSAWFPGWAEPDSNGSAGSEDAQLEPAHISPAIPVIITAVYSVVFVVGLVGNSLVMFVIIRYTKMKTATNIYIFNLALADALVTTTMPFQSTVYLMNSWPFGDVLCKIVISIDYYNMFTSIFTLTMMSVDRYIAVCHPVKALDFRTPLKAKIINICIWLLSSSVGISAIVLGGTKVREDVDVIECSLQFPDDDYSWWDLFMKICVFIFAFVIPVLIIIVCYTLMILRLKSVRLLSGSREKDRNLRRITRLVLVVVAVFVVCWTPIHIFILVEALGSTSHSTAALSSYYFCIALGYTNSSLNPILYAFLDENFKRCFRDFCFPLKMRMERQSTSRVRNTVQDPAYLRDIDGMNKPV
For assay [2], the target named is Sigma non-opioid intracellular receptor 1 (Cavia porcellus) (UniProt Q60492). Briefly: Displacement of [3H]-(+)-pentazocine from sigma1-type […] receptor in guinea pig cortex membranes at 1 uM after 120 mins by solid scintillation counting. The class given is cell membranes.
Chain of Sigma non-opioid intracellular receptor 1 (Cavia porcellus) (Q60492 whole entry): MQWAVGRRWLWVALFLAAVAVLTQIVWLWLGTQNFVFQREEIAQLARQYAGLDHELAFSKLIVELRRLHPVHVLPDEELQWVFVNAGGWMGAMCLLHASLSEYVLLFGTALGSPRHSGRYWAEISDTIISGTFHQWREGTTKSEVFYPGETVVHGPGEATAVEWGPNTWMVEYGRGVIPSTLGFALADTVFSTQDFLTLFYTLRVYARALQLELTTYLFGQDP
For a further assay, the species on record is Sus scrofa. Briefly: Displacement of [3H]-(+)-MK 801 from PCP binding site of NMDA receptor in pig brain cortex membranes at 10 uM after 120 mins by solid scintillation counting. The class given is cell membranes.
A short description of assay [3]: Displacement of [3H]DPDPE from delta-type opioid receptor in guinea pig brain membranes after 120 mins by solid scintillation counting. It is filed as cell membranes, Cavia porcellus, Membrane.
Assay [4] addresses Kappa-type opioid receptor (Cavia porcellus, UniProt P41144). Put plainly: Displacement of [3H]U-69,593 from kappa-type opioid receptor in guinea pig brain membranes after 120 mins by solid scintillation counting. The class given is cell membranes, Membrane.
Assay [5] deals with T1, Kappa-type opioid receptor. Briefly: Agonist activity at recombinant human kappa-type opioid receptor expressed in HEK293 cells after 30 mins by [35S]GTPgammaS binding assay. It is filed as functional, cell-based.
The test system of assay [6] is Mus musculus. Put plainly: Antiinflammatory activity in arachidonic acid-induced ear dermatitis ICR mouse model assessed as reduction in ear swelling at 1 mg administered twice tropically 30 mins prior and 15 mins after arachidonic acid addition measured 60 mins post arachidonic acid challenge relative to control. It is filed as functional.
Assay [7] deals with Mus musculus. Put plainly: Antiinflammatory activity in arachidonic acid-induced ear dermatitis ICR mouse model assessed as reduction in ear swelling at 3 mg administered twice tropically 30 mins prior and 15 mins after arachidonic acid addition measured 60 mins post arachidonic acid challenge relative to control. The class given is functional.
Assay [8] deals with Mus musculus. Put plainly: Antiinflammatory activity in arachidonic acid-induced ear dermatitis ICR mouse model assessed as reduction in ear swelling at 0.3 mg administered twice tropically 30 mins prior and 15 mins after arachidonic acid addition measured 60 mins post arachidonic acid challenge relative to control. The class given is functional.
Assay [9] deals with Mus musculus. Put plainly: Antiinflammatory activity in arachidonic acid-induced ear dermatitis ICR mouse model assessed as reduction in ear swelling at 0.1 mg administered twice tropically 30 mins prior and 15 mins after arachidonic acid addition measured 60 mins post arachidonic acid challenge relative to control. It is filed as functional.
Another assay addresses Mu-type opioid receptor (Cavia porcellus, UniProt P97266). Put plainly: Displacement of [3H]DAMGO from mu-type opioid receptor in guinea pig brain membranes after 120 mins by solid scintillation counting. It is filed as cell membranes, Membrane.

Chain of Mu-type opioid receptor (P97266 whole entry): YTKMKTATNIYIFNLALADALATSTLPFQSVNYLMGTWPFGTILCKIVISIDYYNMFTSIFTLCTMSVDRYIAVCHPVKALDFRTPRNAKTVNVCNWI
Chain of Kappa-type opioid receptor (Cavia porcellus, UniProt P41144) (P41144 whole entry): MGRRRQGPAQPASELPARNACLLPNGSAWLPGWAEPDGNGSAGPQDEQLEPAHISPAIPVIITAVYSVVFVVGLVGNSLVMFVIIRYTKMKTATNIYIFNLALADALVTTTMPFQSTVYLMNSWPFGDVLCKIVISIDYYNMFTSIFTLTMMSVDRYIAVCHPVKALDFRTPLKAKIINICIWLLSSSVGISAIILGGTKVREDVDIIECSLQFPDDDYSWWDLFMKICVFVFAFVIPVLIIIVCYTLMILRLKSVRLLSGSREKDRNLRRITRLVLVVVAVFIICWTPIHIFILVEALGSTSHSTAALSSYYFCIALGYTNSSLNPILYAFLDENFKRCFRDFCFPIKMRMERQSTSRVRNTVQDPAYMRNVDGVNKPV

As to `CS(=O)(=O)N1CCN(C(=O)Cc2ccc(Cl)c(F)c2)[C@@H]2[C@@H](N3CC[C@H](O)C3)CCC[C@@H]21` [listing 1 of 2 here], the inhibition stood at 0% in the assay listed under Rattus norvegicus, 12% in [2] and 16% in the assay listed under Sus scrofa. In addition, the Activity in assay [1] was 105%.

`COC(=O)N1CCN(C(=O)Cc2ccc(Cl)c(Cl)c2)[C@@H]2[C@@H](N(C)C)CCC[C@@H]21`: the Ki in assay [3] is 7.9 nM; in assay [4] it was 0.16 nM. In addition, the EC50 in [5] stood at 1 nM.

As to `COC(=O)CN1CCN(C(=O)Cc2ccc(Cl)c(Cl)c2)[C@@H]2[C@@H](N3CCCC3)CCC[C@@H]21`, the inhibition was 0% in the assay listed under Rattus norvegicus, 0% in [2] and 13% in the assay listed under Sus scrofa. Moreover, in assay [1], the Activity came to 111%.

As to `COC(=O)N1CCN(C(=O)Cc2ccc(F)c(Cl)c2)[C@@H]2[C@@H](N3CC[C@H](O)C3)CCC[C@@H]21`, the “inhibition (INH)” value with Mus musculus [6] is recorded as 58%; in the assay on Mus musculus [7] it was 66%; in the assay with Mus musculus [8] it was -4%; with Mus musculus [9], -12%. Further, the results for the Ki (on Mu-type opioid receptor; in assay [3]; in [4]) were 1300 nM, 61 nM and 0.82 nM, respectively. Further, the EC50 in assay [5] amounted to 2.2 nM.

On to `COC(=O)N1CCN(C(=O)Cc2ccc(C(F)(F)F)c(Cl)c2)[C@@H]2[C@@H](N3CC[C@H](O)C3)CCC[C@@H]21` [listing 1 of 2 here], for which the figures for the inhibitory constant (Ki) (on Mu-type opioid receptor; in assay [3]; in assay [4]) were 612 nM, 394 nM and 0.27 nM, respectively. Besides, in [5], the concentration for a half-maximal effect (EC50) is 0.3 nM.

For `CS(=O)(=O)N1CCN(C(=O)Cc2ccc(Cl)c(F)c2)[C@@H]2[C@@H](N3CC[C@H](O)C3)CCC[C@@H]21` [listing 2 of 2 here], the “inhibition (INH)” value with Mus musculus [6] worked out at 46%; with Mus musculus [7] it was 71%; with Mus musculus [8], 43%; with Mus musculus [9], 33%. For the same molecule, the values for the Ki (at Mu-type opioid receptor; in assay [3]; in assay [4]) were 308 nM, 394 nM and 2.1 nM, respectively. Besides, in assay [5], the EC50 was found to be 8 nM.

`CS(=O)(=O)N1CCN(C(=O)Cc2ccc(Cl)c(Cl)c2)[C@@H]2[C@@H](N3CCCC3)CCC[C@@H]21` [listing 1 of 2 here]: the Ki on Mu-type opioid receptor is 91 nM; in [3] it was 1090 nM; in [4] it was 0.31 nM. Further, the EC50 in assay [5] came to 1.5 nM.

As to `CS(=O)(=O)N1CCN(C(=O)Cc2ccc(Cl)c(Cl)c2)[C@@H]2[C@@H](N3CCCC3)CCC[C@@H]21` [listing 2 of 2 here], the inhibition is 5% in the assay listed under Rattus norvegicus, 0% in assay [2] and 0% in the assay listed under Sus scrofa. For the same molecule, the Activity in assay [1] was 106%.

With `O=C(Cc1ccc(Cl)c(Cl)c1)N1CCN[C@H]2CCC[C@H](N3CCCC3)[C@H]21`, the inhibition in the assay filed under Rattus norvegicus and in the assay listed under Sus scrofa was 0% throughout.

Consider `CC(C)NC(=O)N1CCN(C(=O)Cc2ccc(Cl)c(Cl)c2)[C@@H]2[C@@H](N3CCCC3)CCC[C@@H]21`, for which the Ki is 237 nM in assay [3] and 2.5 nM in [4]. Besides, the EC50 in assay [5] is 4.5 nM.

`CN(C)S(=O)(=O)N1CCN(C(=O)Cc2ccc(Cl)c(Cl)c2)[C@@H]2[C@@H](N3CCCC3)CCC[C@@H]21`: the inhibition (in the assay listed under Rattus norvegicus; in assay [2]) was 0% each time. For the same molecule, the Activity in assay [1] amounted to 105%.

As for `CS(=O)(=O)N1CCN(C(=O)Cc2ccc(F)c(Cl)c2)[C@@H]2[C@@H](N3CC[C@H](O)C3)CCC[C@@H]21`, the “inhibition (INH)” value with Mus musculus [6] was 56%; in the assay with Mus musculus [7], 69%; in the assay with Mus musculus [8], 43%; with Mus musculus [9], 22%. For the same molecule, the results for the Ki in assay [3] and in assay [4] were 575 nM and 1.7 nM, respectively. In assay [5], the EC50 came to 5.9 nM.

For the molecule `COC(=O)N1CCN(C(=O)Cc2ccc(C(F)(F)F)c(Cl)c2)[C@@H]2[C@@H](N3CC[C@H](O)C3)CCC[C@@H]21` [listing 2 of 2 here], the inhibition in the assay filed under Rattus norvegicus was found to be 5%; in assay [2], 30%; in the assay filed under Sus scrofa, 0%. The Activity in [1] turned out to be 100%.

Consider `COC(=O)N1CCN(C(=O)Cc2ccc(Cl)c(Cl)c2)[C@@H]2[C@@H](N3CC[C@H](O)C3)CCC[C@@H]21`, for which the inhibition in the assay listed under Rattus norvegicus came to 12%; in assay [2] it was 0%; in the assay filed under Sus scrofa it was 21%. The Activity in [1] was 113%.
